Test results reported in patent US12109292B2, “Bioflavonoid compositions and their use” (Oraldent Limited, priority 2018, dated 2024).

What was measured:
S. mutans = assay: Short exposure assay (bactericidal effect), colony count; type: cell-based, Streptococcus mutans; settings: 0.05%; 10 minutes; 5000 CFU inoculum
Protocol: The short-term antibacterial activity of Citrox was semi-quantitatively assessed in a short exposure assay. A S. mutans culture, diluted in order to contain 5000 Colony Forming Units, was incubated for 10 minutes in presence of the antibacterial substance and extemporarily plated onto a BHI agar plate. Plates were incubated at 37° C. under anaerobe conditions and colony counted. […] Citrox 0.5% reduced the count of CFU to the half (<3000 CFU).

Streptococcus mutans = assay: Inhibition zone assay on agar plate; type: cell-based; settings: 48 h at 37° C. anaerobe
Protocol: The antibacterial activity of ε-polylysine was semi-quantitatively assessed in a inhibition zone assay. 0.1 mL of a confluent Streptococcus mutans culture was spread over a Brain Heart Infusion (BHI) agar plate. Filter platelets (5 mm diameter) soaked with 0.01 mL substance were applied on plate. Plates were incubated 48 h at 37° C. under anaerobe conditions. The diameter of outer limit of the inhibition zones were measured, the diameter of the platelet deduced and the half result considered the radius of inhibition rings. Concentrations were tested in triplicate and their results averaged.

Escherichia coli [1] = assay: Pre-treatment of high binding plates with Citrox/ε-polylysine, then Escherichia coli growth inhibition (turbidity); type: cell-based
Protocol: High Binding plates were pre-treated with 0.1 mL of pure Citrox/ε-Polylysine solutions incubated 60′ at room temperature. The concentrations of Citrox range from 0.06% to 4%. The ε-Polylysine concentrations range from 30 mg/L to 120 mg/L. The wells have been emptied and rinsed with 0.2 mL bi-distilled water. 0.2 mL of a diluted Escherichia coli culture (turbidity: 5 m OD at 600 nm) were given to the pre-treated wells and incubated for 3 hours at 37° C. Turbidity were measured at 600 nm and percentage of growth inhibition in comparison to untreated well calculated (FIG. 1).

Escherichia coli [2] = assay: Direct exposure of Escherichia coli mini cultures, minimal inhibitory concentration by turbidity; type: cell-based; settings: E. coli, 5 hours at 37° C., extrapolated from FIG. 2
Protocol: Growth inhibition was monitored by measuring turbidity of mini cultures after 5 hours of aerobe incubation at 37° C. under agitation. Solutions were diluted to the half in cascade.

| Compound | colony formation after short exposure (S. mutans) | Radius of inhibition rings (Streptococcus mutans; 0.1%) [mm] | Radius of inhibition rings (Streptococcus mutans; 1%) [mm] | highest ε-polylysine concentration that does not affect significantly the antibacterial effect of Citrox pretreatment (Escherichia coli [1]) [mg/L] | effect of plate-absorbed substance on growth of bacteria in suspension (Escherichia coli [1]; high binding plate, substance absorbed onto solid surface) | Minimal inhibitory concentration (MIC) (Escherichia coli [2]) [µg/mL] | Radius of inhibition rings (Streptococcus mutans; 10 mg/L) [mm] | Radius of inhibition rings (Streptococcus mutans; 100 mg/L) [mm] | Radius of inhibition rings (Streptococcus mutans; 1000 mg/L) [mm] |
| --- | --- | --- | --- | --- | --- | --- | --- | --- | --- |
| OO [Water peroxide, reference compound] | complete absence of colony formation | 1.5 | 5 |  |  |  |  |  |  |
| ε-Polylysine |  |  |  | 30 | does not affect the growth of bacteria in suspension | 4 | 0.5 | 2.5 | 6.5 |
